US6201006A, “Aromatic amidine derivatives useful as selective thrombin inhibitors” (C & C Research Laboratories, priority 1996, dated 2001)

How the values were obtained:
human thrombin = biological target: T1, human thrombin (Homo sapiens, UniProt P00734); test: Inhibitory activity for thrombin (chromogenic substrate hydrolysis, 405 nm); format: biochemical; settings: for Selectivity (trypsin/thrombin): IC50 for trypsin divided by IC50 for thrombin; for IC50: human thrombin, 20 min, pH 8.0, N-benzoyl-Phe-Val-Arg-p-nitroanilide
T1 construct: purchased Sigma T-6759
Procedure, shortened: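 Thrombin: human enzyme (5 units/ml stock, 0.1% BSA) acted for 20 min on N-benzoyl-Phe-Val-Arg-p-nitroanilide in 125 mM NaCl, 50 mM Tris-HCl pH 8.0, with compounds dissolved in 50% methanol. Hydrolysis was read at 405 nm. Selectivity index was trypsin IC50 divided by thrombin IC50.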

trypsin = test: Inhibitory activity for trypsin; format: biochemical
[1] = system: thrombin time (TT) in rat plasma; test: Thrombin time (TT) in rat plasma after oral administration; format: in vivo, SD male rats; settings: TT after / TT before administration
Experimental: SD male rats weighing 220±20 g which had fasted overnight were used as experimental animals. Blood taken from the hearts of the experimental animals just before administration of the test compound and at 30, 60, 120 and 240 minutes after oral administration of the test compound was mixed with 0.108M sodium citrate in the ratio of 9:1. The mixtures thereby obtained were centrifuged at 15,000 rpm for 5 minutes at 4° C. to separate the plasma, which was stored at -20° C. until the TT was measured by means of the method described below.
200 μl of Owren's buffer was added to 50 μl of the plasma and 100 μl of the diluted plasma thereby obtained was injected into the vial of a coagulometer and then incubated for 2 minutes at 37° C. To each vial was added 100 μl of thrombin at a concentration of 20 U/ml, which had prewarmed at 37° C., to measure the time (TT) until clotting occurred. The ratio of the TT in rat plasma after administration of the test compound to the TT in rat plasma before administration of the test compound was calculated.

Structure (SMILES)	Selectivity (trypsin/thrombin) (human thrombin)	IC50 (human thrombin) [nM]	IC50 (trypsin) [nM]	Plasma TT ratio after administration to rat ([1]; 50 mg/kg oral)	Plasma TT ratio after administration to rat ([1]; 100 mg/kg oral)
CCn1c(CC[C@@H]2CCCN2C(=O)[C@H]2CCCN2C(=O)CCN)cc2ccc(C(=N)N)cc21 [Compound 155, 1-ethyl-2-[2-[(S)-1-[[(R)-1-(3-aminopropanoyl)pyrrolidin-2-yl]carbonyl]pyrrolidin-2-yl]ethyl]indole-6-carboxamidine]	24.7	11.6	287	3.93	7.36
CCn1c(CC[C@@H]2CCCN2C(=O)[C@H]2CCCN2C(=O)C[C@H](N)C(N)=O)cc2ccc(C(=N)N)cc21 [Compound 160, 1-ethyl-2-[2-[(S)-1-[[(R)-1-((S)-3-amino-3-carbamoylpropanoyl)pyrrolidin-2-yl]carbonyl]pyrrolidin-2-yl]ethyl]indole-6-carboxamidine]	25.0	15.3	382	2.30	–
CCn1c(CC[C@@H]2CCCN2C(=O)[C@H]2CCCN2C(C)=O)cc2ccc(C(=N)N)cc21 [Compound 171, 1-ethyl-2-[2-[(S)-1-[((R)-1-acetyl-pyrrolidin-2-yl)carbonyl]pyrrolidin-2-yl]ethyl]indole-6-carboxamidine]	35.1	10.6	373	–	4.23

Continued by falling IC50 (human thrombin), values first:

Selectivity (trypsin/thrombin) (human thrombin)	IC50 (human thrombin) [nM]	IC50 (trypsin) [nM]	Structure (SMILES)	Plasma TT ratio after administration to rat ([1]; 50 mg/kg oral)	Plasma TT ratio after administration to rat ([1]; 100 mg/kg oral)
20.7	19.3	–	CCOC(=O)[C@@H](N)CC(=O)N1CCC[C@@H]1C(=O)N1CCC[C@H]1CCc1cc2ccc(C(=N)N)cc2n1CC [Compound 159, ethyl 4-[(R)-2-[[(S)-2-[2-(6-amidino-1-ethylindol-2-yl)-ethyl]pyrrolidinyl]carbonyl]pyrrolidinyl]-(S)-2-amino-4-oxobutanoate]	6.23	–
48.9	5.21	–	CCn1c(CC[C@@H]2CCCN2C(=O)[C@H]2CCCN2C(=O)C[C@H](N)C(=O)O)cc2ccc(C(=N)N)cc21 [Compound 161, 4-[(R)-2-[[(S)-2-[2-(6-amidino-1-ethylindol-2-yl)ethyl]pyrrolidinyl]carbonyl]pyrrolidinyl]-(S)-2-amino-4-oxobutanoic acid]	7.62	–
